Assay results taken from patent US7846971B2, “N-halogenated amino acids, N,N-dihalogenated amino acids and derivatives; compositions and methods of using them” (Novabay Pharmaceuticals, Inc., priority 2005, dated 2010).
Converted amounts (≈) assume the structure as drawn. Like-named read-outs stand apart in the source and are kept apart here.

What was measured:
[1] = test system: Primary Human Skin Fibroblasts; assay: XTT cytotoxicity assay on primary human skin fibroblasts; assay type: cell-based
Experimental: Cytotoxicity was assessed by a colorimetric assay system, initially described by Scudiero et al., using 3′-(phenylamino-carbonyl)-3,4-tetrazolium-bis (4-methoxy-6-nitro) benzene sulfonic acid hydrate (XTT), ProCheck™ cell viability assay (Evaluation of a soluble tetrazolium/formazan assay for cell growth and drug sensitivity in culture using human and other tumor cell lines described by Scudiero D A, Shoemaker R A H, Paul K D, Monks A, Tierney S, Nofziger T H, Currens M J, Seniff D, Boyd M R. Cancer Res. 1988 Septmeber 1;48(17):4827-33). […] Three cell types were used: mouse lung epithelial cells (L929), primary human skin fibroblast and primary human keratinocyte cells cultured in Dulbecco Modified Eagle's Medium and Keratinocyte defined medium with corresponding growth factors plus antibiotics. Cells were trypsinized and counted under the microscope and seeded at 1000-to-2000 cells per well of a flat-bottom 96-well plate. Cells were allowed to grow over-night at 37° C. Next day, tissue culture media was removed and cells were rinsed with fresh media 1× and then left in 50 μL of tissue culture media. Test articles were prepared as 2-fold dilutions and 200 μL was added into each set of 4-wells (total volume per well=250 μL). Cells were exposed to test articles for 60 min at room temperature. Immediately after the exposed time, test article from each well was removed and cells were fed with 250 μL of fresh media. Plates were incubated at 37° C. for 18-20 hours. The following day media was removed again and replaced with 100 μL/well of fresh media containing 10/100 μL XTT-reagent. Cells were incubated under growth conditions (5% CO2 at 37° C. humidified incubator), protected from light, until color development was achieved. Absorbance was read at 450 nm with reference wavelength at 750 nm using Molecular Device ThermoMax Plate reader, blanking the plate on the medium-only assay blank wells. Untreated cells receiving XTT reagents-only served as positive cell proliferation control.

[2] = test system: Escherichia coli (ATCC 11229); assay: Bactericidal activity (colony count, MBC); assay type: cell-based
Experimental: To determine the bactericidal activity, we used Escherichia coli (ATCC 11229). The bacterial culture was diluted in sterile saline to prepare inocula. Various test articles were transferred to individual tubes already containing 1.0×10^5 to 2.0×10^5 Colony Forming Units (CFU)/mL bacteria and mixed by gentle vortexing and then incubated at 37° C. for 1 or 24 hours. In an attempt to mimic as far as possible the conditions, which could be produced in vivo if the test articles were used as antiseptics, bacterial plating in a Petri dish was performed immediately after the designated exposure time without the addition of a neutralizer, and independently with addition of neutralizer (as control). Thus, 0.1 mL was removed after 1 or 24 hours exposure times and plated. Plates were incubated at 37° C., and the numbers of bacteria were counted by direct colony count to numerate the surviving bacteria as CFU/mL. Positive growth controls were made with sterile 0.9% saline. All test articles were tested three times.

[3] = test system: human adenovirus type 5 (Ad5, McEwen strain); assay: Antiviral plaque assay on A549 cell monolayer; assay type: cell-based; settings: virus mixed with sample 1 hr at 37C; for Effect on monolayer (plaques counted), 10^−0 undiluted: dilution 10^−0; for Effect on monolayer (plaques counted), 10^−1: dilution 10^−1; for Effect on monolayer (plaques counted), 10^−2: dilution 10^−2; for Effect on monolayer (plaques counted), 10^−3: dilution 10^−3; for Effect on monolayer (plaques counted), 10^−4: dilution 10^−4; for Effect on monolayer (plaques counted), 10^−5: dilution 10^−5; for Effect on monolayer (plaques counted), 10^−6: dilution 10^−6
Experimental: An equal volume of human adenovirus type 5 (Ad5, McEwen strain) was mixed with each of the three samples listed below. The mixtures were incubated at 37C for 1 hr and then diluted in tissue culture medium (Dulbecco's Modified Eagle Medium [DMEM] containing heat inactivated 2% fetal bovine serum). The mixtures were then diluted in 10-fold serial dilutions using the same diluent mentioned above. 0.1 ml of each diluted mixture was inoculated on to a A549 cell monolayer grown in 12 well plates (cell source, ATTC) and allowed to adsorb for 1 hr. The inoculum was removed and the monolayer rinsed with diluent and agarose/DMEM overlay applied. The plates were incubated at 37° C. in 5% CO2 atmosphere for 6 days. The monolayers were then fixed, stained and the plaques counted.

[4] = UV-vis spectrum and concentration of NNDCT solutions at varying pH; assay type: physicochemical; settings: 1.49 mM, pH 3.0 to 5.0
Experimental: The spectra and the concentrations of the solutions were measured on the UV-vis spectrometer.
Add 8.8 g NaCl, 2 ml of 1.0 M HCl, and 0.278 g of taurine into a 1000-ml volumetric flask, followed by adding about 800 ml of deionized water into the flask. Shake the flask to dissolve NaCl and taurine powders. Then add […] of 0.15M of the NaOCl solution into the flask. Fill the flask up to the mark with deionized water. Stir the solution with a magnetic stirring bar for 5 minutes. The concentration and the pH of the resulting solution were measured on a UV-vis spectrometer and a freshly calibrated Beckman pH meter. This solution has a concentration of 1.49 mM and a pH value of 3.85. […] The final pH of this solution is 3.0. […] The final pH of this solution is 4.85.

[5] = Volatility test, tightly vs loosely capped bottles; assay type: physicochemical; settings: 1.47 mM in 0.9% saline
Experimental: NNDCT is not volatile. A solution of 1.47 mM in 0.9% saline at pH 3.5 was filled in two glass bottles. One bottle was capped tightly and another was capped loosely.

[6] = XTT cytotoxicity assay on L929 cells; assay type: cell-based; settings: mouse
Experimental: Cytotoxicity was assessed by a colorimetric assay system, initially described by Scudiero et al., using 3′-(phenylamino-carbonyl)-3,4-tetrazolium-bis (4-methoxy-6-nitro) benzene sulfonic acid hydrate (XTT), ProCheck™ cell viability assay (Evaluation of a soluble tetrazolium/formazan assay for cell growth and drug sensitivity in culture using human and other tumor cell lines described by Scudiero D A, Shoemaker R A H, Paul K D, Monks A, Tierney S, Nofziger T H, Currens M J, Seniff D, Boyd M R. Cancer Res. 1988 Septmeber 1;48(17):4827-33). […] Three cell types were used: mouse lung epithelial cells (L929), primary human skin fibroblast and primary human keratinocyte cells cultured in Dulbecco Modified Eagle's Medium and Keratinocyte defined medium with corresponding growth factors plus antibiotics. Cells were trypsinized and counted under the microscope and seeded at 1000-to-2000 cells per well of a flat-bottom 96-well plate. Cells were allowed to grow over-night at 37° C. Next day, tissue culture media was removed and cells were rinsed with fresh media 1× and then left in 50 μL of tissue culture media. […] Absorbance was read at 450 nm with reference wavelength at 750 nm using Molecular Device ThermoMax Plate reader, blanking the plate on the medium-only assay blank wells. […]

[7] = assay type: physicochemical
From the text: N,N-dichlorotaurine can be identified and quantitatively determined by UV spectroscopy.

[8] = pH=1.88, after 100 hours; cited from earlier work
[9] = assay type: physicochemical; remark: listed apart in the source
From the text: NNDCT and NCT are spectrophotometrically distinguishable. NCT has a maximum absorbance at 252 nm. […] The solution was sealed in ampoules.

[10] = Homo sapiens, Skin fibroblast, Table 2, pH 3.5, in vitro cytotoxicity, read-out: IC50
[11] = Escherichia coli, ATCC11229, Table 2, pH 3.5, read-out: MBC

OCl [HOCl, hypochlorous acid, reference compound]
IC50 [1, 10]: 47 µg/mL (≈ 896 µM)
MBC [2, 11]: 0.16 µg/mL (≈ 3.05 µM)
effective antimicrobial concentration range ([2]; pH 3.5, 60 min, 37° C.): ≥ 0.016 mM
effective antimicrobial concentration range ([2]; pH 3.5, 24 hrs, 37° C.): ≥ 0.0016 mM
Effect on monolayer (plaques counted), 10^−0 undiluted [3]: 14
Effect on monolayer (plaques counted), 10^−1 [3]: 9
Effect on monolayer (plaques counted), 10^−2 [3]: 3
Effect on monolayer (plaques counted), 10^−3 [3]: 1
Effect on monolayer (plaques counted), 10^−4 [3]: 4
Effect on monolayer (plaques counted), 10^−5 [3]: 4
Effect on monolayer (plaques counted), 10^−6 [3]: 1

O=S(=O)(O)CCNCl [NCT, N-chlorotaurine]
factor by which less antimicrobial than NNDCT on an equal concentration basis [2]: 1000 fold
MBC ([2]; Escherichia coli, ATCC11229, 1 h, pH 9.5, read-out: MBC (Minimum Bactericidal Concentration)): 142 µg/mL (≈ 893 µM)

O=S(=O)(O)CCN(Cl)Cl [NNDCT, N,N-dichlorotaurine]
IC50 [1, 10]: 1440 µg/mL (≈ 7430 µM)
spectrum and concentration of NNDCT solution over pH range [4]: did not change
volatility ([5]; pH 3.5): not volatile
difference in concentration between tightly and loosely capped bottle ([5]; pH 3.5, 4 weeks, room temperature): no difference
viability at 60 min, 7 mM [6]: > 90%
solubility in water [7]: very soluble
killing efficiency of NNDCT at pH 3.5 as compared to NCT at pH 9.5 ([2]; 60 min exposure, 37° C.): 1000 fold
killing efficiency of NNDCT at pH 3.5 over NNDCT at pH 5.0 ([2]; 60 min exposure, 37° C.): about 300 fold
MBC ([2]; Escherichia coli, ATCC11229, 1 h, pH 3.5, isotonic solution, 60 min, 37° C., read-out: MBC (Minimum Bactericidal Concentration)): 0.136 µg/mL (≈ 0.701 µM)
MBC ([2]; Escherichia coli, ATCC11229, 1 h, pH 5.0, isotonic solution, 60 min, 37° C., read-out: MBC (Minimum Bactericidal Concentration)): 38 µg/mL (≈ 196 µM)
MBC [2, 11]: 0.29 µg/mL (≈ 1.49 µM)
effectiveness against E. coli compared with HOCl ([2]; pH 3.5): better or as effective
loss of N,N-dichlorotaurine [8]: less than 5%
loss of N,N-dichlorotaurine ([9]; solution in a vial stored in a refrigerator, three months): no more than 13%
NNDCT lost ([9]; solution pH 3.5, sealed ampoules, refrigerator (4° C.), 4 weeks, initial 1.47 mM): 5.4%

CC(C)(CS(=O)(=O)O)N(Cl)Cl [Sample 1, N,N-dichloro-1,1-dimethylethanesulphonic acid]
Effect on monolayer (plaques counted), 10^−0 undiluted [3]: Early toxic
Effect on monolayer (plaques counted), 10^−1 [3]: 28
Effect on monolayer (plaques counted), 10^−2 [3]: 17
Effect on monolayer (plaques counted), 10^−3 [3]: 3
Effect on monolayer (plaques counted), 10^−4 [3]: 3
Effect on monolayer (plaques counted), 10^−5 [3]: 3
Effect on monolayer (plaques counted), 10^−6 [3]: 9

Povidone-Iodine [reference compound]
IC50 ([1]; Table 2, pH 4.2, in vitro cytotoxicity): 2.5 µg/mL
MBC ([2]; Table 2, pH 4.2): 0.38 µg/mL
